Assay: NBPT comparative solubility in solvents
Type: physicochemical
Conditions: room temperature; for maximum weight percentage of NBPT dissolved in the solvent: vials with 20, 30, 40 and 50 wt. % NBPT
Experimental: The solubility of the N-(n-butyl) thiophosphoric triamide (NBPT) was determined for thirteen solvents. Three of the solvents were caprolactam-derived solvents in accordance with compositions of this disclosure. The remaining ten were comparative solvents. The NBPT was 98% (HPLC) obtained from AK Scientific, Inc., Union City, California. The N-methyl-2-pyrrolidone was at least 99% pure and obtained from Sigma Aldrich of St. Louis, Missouri. The N-butyl-2-pyrrolidone was at least 98% pure and obtained from TCI America of Portland, Oregon. The methyl-5-(dimethylamino)-2-methyl-5-oxopentanoate/propylene glycol was 70-90% pure and obtained from Solvay S. A. of Princeton, N.J.
The solubility of NBPT was evaluated for each solvent by preparing four, 2 ml vials containing 20 wt. %, 30 wt. %, 40 wt. % and 50 wt. % of NBPT. To prepare the 20 wt. % vial, 0.040 g of NBPT was added to 0.160 ml of solvent. To prepare the 30 wt. % vial, 0.060 g of NBPT was added to 0.140 ml of solvent. To prepare the 40 wt. % vial, […] of NBPT was added to 0.120 ml of solvent. To prepare the 50 wt. % vial, 0.100 g of NBPT was added to 0.100 ml of solvent. The vials were capped and swirled at room temperature until no change in solubility was observed.
Solvents 1-3 are in accordance with compositions of the present disclosure. Solvents 4-13 are comparative solvents.

Compound | maximum weight percentage of NBPT dissolved in the solvent | NBPT dissolving performance compared with NMP
COC(=O)CCCCC(=O)N(C)C [N,N-dimethyladipamide methyl ester] | 40% | –
CCCCCCCCCC(=O)N(C)C [N,N-dimethyldecanamide] | 20% | –
N#CCCN1CCCCCC1=O [N-(2-cyanoethyl)caprolactam] | <20% | –
CCCCN1CCCC1=O [N-butyl-2-pyrrolidone] | 50% | –
CCCCN1CCCCCC1=O [N-butylcaprolactam] | 40% | performed nearly as well as NMP
CCN1CCCCCC1=O [N-ethylcaprolactam] | 50% | performed as well as NMP
O=C1CCCCC1 [cyclohexanone] | 40% | –
COC1CCCCC1 [cyclohexyl methyl ether] | <20% | –

Continued, values first:

maximum weight percentage of NBPT dissolved in the solvent | NBPT dissolving performance compared with NMP | Compound
50% | – | CN1CCCC1=O [N-methyl-2-pyrrolidone]
50% | performed as well as NMP | CN1CCCCCC1=O [N-methylcaprolactam]
<20% | – | CC(=O)OC1CCCCC1 [cyclohexyl acetate]
<20% | – | CCCC(=O)OC1CCCCC1 [cyclohexyl butyrate]
30% | – | COC(=O)C(C)CCC(=O)N(C)C (stereo not shown) [methyl-5-(dimethylamino)-2-methyl-5-oxopentanoate]

— patent publication US20190077724A1, “COMPOSITIONS AND METHODS FOR CROP NUTRITION” (AdvanSix Resins & Chemicals LLC, priority 2017, published 2019)
